10 molecules from PubChem BioAssay (NCI) can be followed below.

Some test systems named below: NCI-H226 lung; A498 renal; U251 CNS; KM12 colon; EKVX NSCLC; SNB-75 CNS; SF-268 CNS; HCC-2998 colon; A549 NSCLC; HL-60(TB) leukemia; HOP-92 NSCLC.
Holding throughout (experiment): NCI-60 cell line screen, 48 h

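Dose response: 5 concentrations. Exposure: 48 h. Format: 96-well plates. Endpoint: linear interpolation; highest concentration if not reached. At the GI50, growth is halved. TGI marks complete inhibition of growth.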

As for `O=[N+]([O-])c1ccc(C2=Nc3ccccc3SC(c3ccccc3)C2)cc1` (stereo not drawn), the TGI in the assay on NCI-H226 lung came to 54 µM; in the assay with A498 renal, 47.9 µM; in the assay on U251 CNS, 26.3 µM; with KM12 colon, 32.2 µM; in the assay on EKVX NSCLC, 44.3 µM; in the assay on SNB-75 CNS it was 37.1 µM. The TGI in the assay with SF-268 CNS was found to be 63.3 µM; with HCC-2998 colon it was 29 µM; with A549 NSCLC it was 51.2 µM; in the assay on HL-60(TB) leukemia, 40 µM.
On to `O=C([CH-]C(=O)c1ccccc1)c1ccccc1.O=C([CH-]C(=O)c1ccccc1)c1ccccc1.[O]=[U+2]=[O]`, for which the GI50 was 2.59 µM in the assay with A498 renal; 3.06 µM in the assay on U251 CNS; 2.9 µM with HOP-92 NSCLC; 4.78 µM in the assay on EKVX NSCLC; 3.17 µM in the assay with A549 NSCLC. Moreover, the TGI with A498 renal was 7.89 µM; with U251 CNS it was more than 100 µM; with HOP-92 NSCLC it was 6.18 µM; in the assay with EKVX NSCLC, more than 100 µM; with A549 NSCLC it was 18.7 µM.
With `O=C(c1ccco1)C1CC(c2c(O)ccc3ccccc23)=NN1` (stereo not drawn), the TGI was 40.2 µM in the assay with NCI-H226 lung; 40.4 µM with A498 renal; 34.1 µM in the assay with U251 CNS; 24.3 µM with KM12 colon; 37.4 µM with HOP-92 NSCLC; 32.4 µM in the assay on EKVX NSCLC. The TGI was 33.6 µM in the assay on SNB-75 CNS, 30.2 µM with SF-268 CNS, 25.7 µM with HCC-2998 colon and 53.8 µM in the assay with HL-60(TB) leukemia.
Consider `NC(=O)c1ncn2c1NC(=O)CC2`, for which the TGI in the assay with NCI-H226 lung, in the assay with A498 renal, in the assay on U251 CNS, with KM12 colon, in the assay on HOP-92 NSCLC and in the assay on EKVX NSCLC was more than 100 µM throughout. In addition, the TGI with SNB-75 CNS, in the assay with SF-268 CNS, in the assay on HCC-2998 colon, with A549 NSCLC and with HL-60(TB) leukemia was more than 100 µM in each case.
Take `COC(=O)C1=C(O)C(C(=O)OC)[C@@]2(O)[C@@H](C(=O)OC)[C@H](C)[C@@H](C)[C@@H]1[C@@H]2C(=O)OC` (stereo partly drawn): the TGI in the assay with NCI-H226 lung, with A498 renal, in the assay with U251 CNS, in the assay on KM12 colon, in the assay on EKVX NSCLC and with SNB-75 CNS was more than 100 µM each time. In addition, the TGI in the assay on SF-268 CNS, in the assay on HCC-2998 colon and in the assay on HL-60(TB) leukemia was more than 100 µM each time.
For the molecule `CC1(C)OC2CC(=O)OCC23C1CC(=O)C1(C)C3CCC2(C)C(c3ccoc3)OC(=O)C3OC321` (stereo not drawn), the TGI in the assay on NCI-H226 lung is more than 125 µM; with A498 renal, more than 125 µM; in the assay on U251 CNS, more than 125 µM; with KM12 colon it was more than 125 µM; in the assay on EKVX NSCLC it was more than 58 µM; in the assay with SNB-75 CNS, more than 109 µM. The TGI with SF-268 CNS, in the assay on HCC-2998 colon, in the assay on A549 NSCLC and with HL-60(TB) leukemia was more than 125 µM each time.
For `CCN1C(=O)N(CC)C2Nn3c(s/c(=C4\C(=O)N(C)c5ccccc54)c3=O)=NC21` (stereo not drawn), the GI50 is more than 100 µM in the assay with NCI-H226 lung; 1.67 µM in the assay on A498 renal; 4.21 µM in the assay on U251 CNS; 2.91 µM with KM12 colon; 69.5 µM in the assay on HOP-92 NSCLC; 2.25 µM in the assay on EKVX NSCLC. The GI50 was more than 100 µM in the assay with SF-268 CNS and 5.08 µM with A549 NSCLC. The TGI in the assay with NCI-H226 lung was more than 100 µM; with A498 renal it was 5.68 µM; in the assay with U251 CNS, more than 100 µM; in the assay on KM12 colon, more than 100 µM; with HOP-92 NSCLC, more than 100 µM; in the assay on EKVX NSCLC, more than 100 µM. Moreover, the TGI in the assay with SF-268 CNS and in the assay with A549 NSCLC was more than 100 µM each time.
As to `CCCCC#CS(=O)(=O)C(F)(F)F`, the TGI in the assay with NCI-H226 lung was more than 100 µM; in the assay with A498 renal it was more than 100 µM; in the assay with U251 CNS, more than 100 µM; in the assay with KM12 colon, more than 100 µM; with HOP-92 NSCLC, more than 84.4 µM; with EKVX NSCLC, more than 100 µM. The TGI in the assay on SNB-75 CNS was 98.3 µM; in the assay on SF-268 CNS, more than 100 µM; in the assay on HCC-2998 colon it was more than 31.6 µM; with A549 NSCLC it was more than 100 µM; with HL-60(TB) leukemia, 62.9 µM.
Consider `Cc1c2ccncc2c(C)c2c1[nH]c1ccccc12`, for which the TGI in the assay on NCI-H226 lung came out at 5.46 µM; in the assay on A498 renal, 3.62 µM; in the assay with U251 CNS it was 2.08 µM; in the assay on KM12 colon it was 2.36 µM; in the assay on HOP-92 NSCLC, 2.59 µM; in the assay with EKVX NSCLC it was 3 µM. Also, the TGI worked out at 2.64 µM with SNB-75 CNS; 3.38 µM in the assay on SF-268 CNS; 4.87 µM with HCC-2998 colon; 2.96 µM in the assay with A549 NSCLC; 6.78 µM in the assay with HL-60(TB) leukemia.
Turning to `O=C(OCc1ccccc1)C(Cc1ccccc1)N(Cc1ccccc1)Cc1ccccc1` (stereo not drawn), the TGI in the assay on A498 renal, in the assay on U251 CNS, with KM12 colon, in the assay on HOP-92 NSCLC, in the assay on EKVX NSCLC and in the assay on SNB-75 CNS was more than 100 µM each time. Further, the TGI in the assay on SF-268 CNS, in the assay with HCC-2998 colon, in the assay with A549 NSCLC and in the assay on HL-60(TB) leukemia was more than 100 µM each time.
